Reference: ChEMBL document CHEMBL3885881, “DrugMatrix”

Organism: Rattus norvegicus
Experiment: DrugMatrix - Regimen: Daily Repeat
Type: toxicity, organism-based, Sprague-Dawley
Parameters: regimen Daily Repeat, gender Male, age 6-8 weeks
Settings: in vivo, po, route oral GAVAGE, […]; for ABSOLUTE BASOPHIL / ABSOLUTE EOSINOPHIL / ABSOLUTE LYMPHOCYTE / ABSOLUTE MONOCYTE / ABSOLUTE SEGMENTED NEUTROPHIL / BASOPHIL / EOSINOPHIL / ERYTHROCYTE COUNT / HEMATOCRIT / HEMOGLOBIN / LEUKOCYTE COUNT / LYMPHOCYTE / MEAN CORPUSCULAR HEMOGLOBIN / MEAN CORPUSCULAR HEMOGLOBIN CONCENTRATION / MEAN CORPUSCULAR VOLUME / MONOCYTE / NEUTROPHIL / NUCLEATED RED BLOOD CELLS / PLATELET COUNT: tissue Blood; for ALANINE AMINOTRANSFERASE / ALBUMIN / ALKALINE PHOSPHATASE / ASPARTATE AMINOTRANSFERASE / BLOOD UREA NITROGEN / CARBON DIOXIDE / CHLORIDE / CHOLESTEROL / CREATINE PHOSPHOKINASE / CREATININE / GLUCOSE / LACTATE DEHYDROGENASE / LIPASE / PHOSPHORUS / POTASSIUM / SODIUM / TOTAL BILIRUBIN / TOTAL PROTEIN / URIC ACID: tissue Plasma
[1] = 0 mg/kg, 72 h, dose level Control, time 3 day
[2] = 0 mg/kg, 120 h, dose level Control, time 5 day
[3] = 59 mg/kg, 72 h, dose level Low, time 3 day
[4] = 59 mg/kg, 120 h, dose level Low, time 5 day

For `Oc1c(Cl)cc(Cl)cc1Sc1cc(Cl)cc(Cl)c1O` [BITHIONOL], the “ABSOLUTE BASOPHIL” value [1] was 0 CELLS/uL, the “ABSOLUTE EOSINOPHIL” value [1] was 33 CELLS/uL and the “ABSOLUTE LYMPHOCYTE” value [1] was 9048.5 CELLS/uL. The “ABSOLUTE MONOCYTE” value [1] was 80.17 CELLS/uL, the “ABSOLUTE SEGMENTED NEUTROPHIL” value [1] was 1521.67 CELLS/uL and the BASOPHIL [1] was 0%. The EOSINOPHIL [1] was 0.17%, the “ERYTHROCYTE COUNT” value [1] was 5.46 x10E6/uL and the HEMATOCRIT [1] was 32.87%. The HEMOGLOBIN [1] was 12.95 G/DL, the “LEUKOCYTE COUNT” value [1] was 10.68 x10E3/uL and the LYMPHOCYTE [1] was 86.67%. For the same compound, the “MEAN CORPUSCULAR HEMOGLOBIN” value [1] was 23.72 pg, the “MEAN CORPUSCULAR HEMOGLOBIN CONCENTRATION” value [1] was 39.4 G/DL and the “MEAN CORPUSCULAR VOLUME” value [1] was 60.18 fL. For the same compound, the MONOCYTE [1] was 0.83%, the NEUTROPHIL [1] was 12.33% and the “NUCLEATED RED BLOOD CELLS” value [1] was 0 /100WBC. For the same compound, the “PLATELET COUNT” value [1] was 1211.33 x10E3/uL, the “ALANINE AMINOTRANSFERASE” value [1] was 76.67 u/L and the ALBUMIN [1] was 3.93 G/DL. For the same compound, the “ALKALINE PHOSPHATASE” value [1] was 317.17 u/L, the “ASPARTATE AMINOTRANSFERASE” value [1] was 81.17 u/L and the “BLOOD UREA NITROGEN” value [1] was 12.33 mg/dL. For the same compound, the “CARBON DIOXIDE” value [1] was 31.17 mmol/L, the CHLORIDE [1] was 98.33 MEQ/L and the CHOLESTEROL [1] was 67.17 mg/dL. For the same compound, the “CREATINE PHOSPHOKINASE” value [1] was 312.33 u/L, the CREATININE [1] was 0.19 mg/dL and the GLUCOSE [1] was 165.5 mg/dL. For the same compound, the “LACTATE DEHYDROGENASE” value [1] was 94.5 u/L, the LIPASE [1] was 9.83 u/L and the PHOSPHORUS [1] was 10.1 mg/dL. The POTASSIUM [1] was 5.16 MEQ/L, the SODIUM [1] was 143.02 MEQ/L and the “TOTAL BILIRUBIN” value [1] was 0.2 mg/dL. For the same compound, the “TOTAL PROTEIN” value [1] was 5.88 G/DL, the “URIC ACID” value [1] was 0.68 mg/dL and the “ABSOLUTE BASOPHIL” value [2] was 0 CELLS/uL. The “ABSOLUTE EOSINOPHIL” value [2] was 14.67 CELLS/uL, the “ABSOLUTE LYMPHOCYTE” value [2] was 9629.83 CELLS/uL and the “ABSOLUTE MONOCYTE” value [2] was 72.5 CELLS/uL. For the same compound, the “ABSOLUTE SEGMENTED NEUTROPHIL” value [2] was 1049.67 CELLS/uL, the BASOPHIL [2] was 0% and the EOSINOPHIL [2] was 0.17%. The “ERYTHROCYTE COUNT” value [2] was 5.36 x10E6/uL, the HEMATOCRIT [2] was 33.82% and the HEMOGLOBIN [2] was 13.48 G/DL. For the same compound, the “LEUKOCYTE COUNT” value [2] was 10.77 x10E3/uL, the LYMPHOCYTE [2] was 90.17% and the “MEAN CORPUSCULAR HEMOGLOBIN” value [2] was 25.28 pg. The “MEAN CORPUSCULAR HEMOGLOBIN CONCENTRATION” value [2] was 39.92 G/DL, the “MEAN CORPUSCULAR VOLUME” value [2] was 63.3 fL and the MONOCYTE [2] was 0.67%. The NEUTROPHIL [2] was 9%, the “NUCLEATED RED BLOOD CELLS” value [2] was 0.17 /100WBC and the “PLATELET COUNT” value [2] was 1275.33 x10E3/uL. For the same compound, the “ALANINE AMINOTRANSFERASE” value [2] was 93.67 u/L, the ALBUMIN [2] was 4.17 G/DL and the “ALKALINE PHOSPHATASE” value [2] was 402.5 u/L. The “ASPARTATE AMINOTRANSFERASE” value [2] was 122.83 u/L, the “BLOOD UREA NITROGEN” value [2] was 14.75 mg/dL and the “CARBON DIOXIDE” value [2] was 26.4 mmol/L. The CHLORIDE [2] was 98.5 MEQ/L, the CHOLESTEROL [2] was 57.5 mg/dL and the “CREATINE PHOSPHOKINASE” value [2] was 305.17 u/L. For the same compound, the CREATININE [2] was 0.21 mg/dL, the GLUCOSE [2] was 142 mg/dL and the “LACTATE DEHYDROGENASE” value [2] was 83.5 u/L. It also gave an LIPASE [2] of 85.83 u/L, a PHOSPHORUS [2] of 8.18 mg/dL and a POTASSIUM [2] of 5.46 MEQ/L. The SODIUM [2] was 144 MEQ/L, the “TOTAL BILIRUBIN” value [2] was 0.25 mg/dL and the “TOTAL PROTEIN” value [2] was 5.63 G/DL. The “URIC ACID” value [2] was 0.8 mg/dL, the “ABSOLUTE BASOPHIL” value [3] was 0 CELLS/uL and the “ABSOLUTE EOSINOPHIL” value [3] was 0 CELLS/uL. The “ABSOLUTE LYMPHOCYTE” value [3] was 6654 CELLS/uL, the “ABSOLUTE MONOCYTE” value [3] was 41.33 CELLS/uL and the “ABSOLUTE SEGMENTED NEUTROPHIL” value [3] was 671.33 CELLS/uL. For the same compound, the BASOPHIL [3] was 0%, the EOSINOPHIL [3] was 0% and the “ERYTHROCYTE COUNT” value [3] was 5.26 x10E6/uL. The HEMATOCRIT [3] was 32.77%, the HEMOGLOBIN [3] was 12.93 G/DL and the “LEUKOCYTE COUNT” value [3] was 7.37 x10E3/uL. The LYMPHOCYTE [3] was 90%, the “MEAN CORPUSCULAR HEMOGLOBIN” value [3] was 24.57 pg and the “MEAN CORPUSCULAR HEMOGLOBIN CONCENTRATION” value [3] was 39.5 G/DL. The “MEAN CORPUSCULAR VOLUME” value [3] was 62.3 fL, the MONOCYTE [3] was 0.67% and the NEUTROPHIL [3] was 9.33%. For the same compound, the “NUCLEATED RED BLOOD CELLS” value [3] was 0 /100WBC, the “PLATELET COUNT” value [3] was 1231 x10E3/uL and the “ALANINE AMINOTRANSFERASE” value [3] was 78.67 u/L. The ALBUMIN [3] was 4.07 G/DL, the “ALKALINE PHOSPHATASE” value [3] was 362 u/L and the “ASPARTATE AMINOTRANSFERASE” value [3] was 89.33 u/L. The “BLOOD UREA NITROGEN” value [3] was 13.67 mg/dL, the “CARBON DIOXIDE” value [3] was 31.67 mmol/L and the CHLORIDE [3] was 98.67 MEQ/L. The CHOLESTEROL [3] was 74.33 mg/dL, the “CREATINE PHOSPHOKINASE” value [3] was 365.67 u/L and the CREATININE [3] was 0.18 mg/dL. The GLUCOSE [3] was 157.67 mg/dL, the “LACTATE DEHYDROGENASE” value [3] was 123.67 u/L and the LIPASE [3] was 10 u/L. The PHOSPHORUS [3] was 11.23 mg/dL, the POTASSIUM [3] was 6.04 MEQ/L and the SODIUM [3] was 142.9 MEQ/L. The “TOTAL BILIRUBIN” value [3] was 0.17 mg/dL, the “TOTAL PROTEIN” value [3] was 5.97 G/DL and the “URIC ACID” value [3] was 0.6 mg/dL. The “ABSOLUTE BASOPHIL” value [4] was 0 CELLS/uL, the “ABSOLUTE EOSINOPHIL” value [4] was 30 CELLS/uL and the “ABSOLUTE LYMPHOCYTE” value [4] was 8041.67 CELLS/uL. The “ABSOLUTE MONOCYTE” value [4] was 31.33 CELLS/uL, the “ABSOLUTE SEGMENTED NEUTROPHIL” value [4] was 663.67 CELLS/uL and the BASOPHIL [4] was 0%. For the same compound, the EOSINOPHIL [4] was 0.33%, the “ERYTHROCYTE COUNT” value [4] was 5.55 x10E6/uL and the HEMATOCRIT [4] was 33.6%. The HEMOGLOBIN [4] was 13.2 G/DL, the “LEUKOCYTE COUNT” value [4] was 8.77 x10E3/uL and the LYMPHOCYTE [4] was 91.67%. For the same compound, the “MEAN CORPUSCULAR HEMOGLOBIN” value [4] was 23.8 pg, the “MEAN CORPUSCULAR HEMOGLOBIN CONCENTRATION” value [4] was 39.27 G/DL and the “MEAN CORPUSCULAR VOLUME” value [4] was 60.53 fL. For the same compound, the MONOCYTE [4] was 0.33%, the NEUTROPHIL [4] was 7.67% and the “NUCLEATED RED BLOOD CELLS” value [4] was 0 /100WBC. The “PLATELET COUNT” value [4] was 933.33 x10E3/uL, the “ALANINE AMINOTRANSFERASE” value [4] was 82.33 u/L and the ALBUMIN [4] was 4.23 G/DL. For the same compound, the “ALKALINE PHOSPHATASE” value [4] was 343.33 u/L, the “ASPARTATE AMINOTRANSFERASE” value [4] was 99.67 u/L and the “BLOOD UREA NITROGEN” value [4] was 14.67 mg/dL. The “CARBON DIOXIDE” value [4] was 27.67 mmol/L, the CHLORIDE [4] was 102.33 MEQ/L and the CHOLESTEROL [4] was 55.67 mg/dL. The “CREATINE PHOSPHOKINASE” value [4] was 348 u/L, the CREATININE [4] was 0.19 mg/dL and the GLUCOSE [4] was 150.67 mg/dL. For the same compound, the “LACTATE DEHYDROGENASE” value [4] was 104.67 u/L, the LIPASE [4] was 19 u/L and the PHOSPHORUS [4] was 9.53 mg/dL. The POTASSIUM [4] was 5.41 MEQ/L, the SODIUM [4] was 145.97 MEQ/L and the “TOTAL BILIRUBIN” value [4] was 0.23 mg/dL. For the same compound, the “TOTAL PROTEIN” value [4] was 5.97 G/DL and the “URIC ACID” value [4] was 0.9 mg/dL.
